The results in this text go back to US9637472B2, “Substituted 6,5-fused bicyclic heteroaryl compounds” (Epizyme, Inc., priority 2011, dated 2017).

Sequence of EZH2 (Q15910 other isoform, or with tags, fused parts or gaps): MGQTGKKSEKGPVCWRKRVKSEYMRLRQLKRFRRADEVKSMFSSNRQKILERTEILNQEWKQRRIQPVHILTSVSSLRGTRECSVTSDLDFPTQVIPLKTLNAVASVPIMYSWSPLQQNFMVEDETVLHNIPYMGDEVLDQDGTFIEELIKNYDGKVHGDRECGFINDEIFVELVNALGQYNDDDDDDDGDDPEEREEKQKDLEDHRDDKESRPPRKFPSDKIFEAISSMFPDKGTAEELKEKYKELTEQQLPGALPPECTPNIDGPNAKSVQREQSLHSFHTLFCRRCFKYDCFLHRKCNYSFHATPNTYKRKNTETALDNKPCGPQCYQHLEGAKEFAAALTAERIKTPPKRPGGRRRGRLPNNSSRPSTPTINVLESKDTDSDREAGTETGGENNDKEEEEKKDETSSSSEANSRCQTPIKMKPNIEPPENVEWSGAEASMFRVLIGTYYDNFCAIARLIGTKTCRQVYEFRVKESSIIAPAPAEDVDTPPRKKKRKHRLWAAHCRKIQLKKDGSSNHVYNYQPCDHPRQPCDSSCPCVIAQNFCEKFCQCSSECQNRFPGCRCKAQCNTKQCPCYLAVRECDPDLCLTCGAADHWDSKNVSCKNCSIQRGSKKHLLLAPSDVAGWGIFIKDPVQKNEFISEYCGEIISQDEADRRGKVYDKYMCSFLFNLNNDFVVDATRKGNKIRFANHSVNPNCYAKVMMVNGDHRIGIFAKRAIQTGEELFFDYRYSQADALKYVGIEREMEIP
Sequence of EZH2 (O75530 whole entry partner): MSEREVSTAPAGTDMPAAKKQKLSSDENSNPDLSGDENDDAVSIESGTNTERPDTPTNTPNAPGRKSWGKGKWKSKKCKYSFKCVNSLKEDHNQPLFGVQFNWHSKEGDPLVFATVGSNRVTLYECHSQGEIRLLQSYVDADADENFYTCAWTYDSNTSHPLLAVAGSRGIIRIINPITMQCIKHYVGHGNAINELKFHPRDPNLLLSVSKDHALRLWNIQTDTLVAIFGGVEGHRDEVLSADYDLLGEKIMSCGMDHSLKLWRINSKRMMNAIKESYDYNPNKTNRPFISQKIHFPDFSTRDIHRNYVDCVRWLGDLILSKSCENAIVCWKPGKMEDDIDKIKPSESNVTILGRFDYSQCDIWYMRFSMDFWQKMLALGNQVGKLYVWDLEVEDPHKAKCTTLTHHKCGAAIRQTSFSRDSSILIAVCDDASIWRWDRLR
Sequence of EZH2 (Q15022 whole entry partner): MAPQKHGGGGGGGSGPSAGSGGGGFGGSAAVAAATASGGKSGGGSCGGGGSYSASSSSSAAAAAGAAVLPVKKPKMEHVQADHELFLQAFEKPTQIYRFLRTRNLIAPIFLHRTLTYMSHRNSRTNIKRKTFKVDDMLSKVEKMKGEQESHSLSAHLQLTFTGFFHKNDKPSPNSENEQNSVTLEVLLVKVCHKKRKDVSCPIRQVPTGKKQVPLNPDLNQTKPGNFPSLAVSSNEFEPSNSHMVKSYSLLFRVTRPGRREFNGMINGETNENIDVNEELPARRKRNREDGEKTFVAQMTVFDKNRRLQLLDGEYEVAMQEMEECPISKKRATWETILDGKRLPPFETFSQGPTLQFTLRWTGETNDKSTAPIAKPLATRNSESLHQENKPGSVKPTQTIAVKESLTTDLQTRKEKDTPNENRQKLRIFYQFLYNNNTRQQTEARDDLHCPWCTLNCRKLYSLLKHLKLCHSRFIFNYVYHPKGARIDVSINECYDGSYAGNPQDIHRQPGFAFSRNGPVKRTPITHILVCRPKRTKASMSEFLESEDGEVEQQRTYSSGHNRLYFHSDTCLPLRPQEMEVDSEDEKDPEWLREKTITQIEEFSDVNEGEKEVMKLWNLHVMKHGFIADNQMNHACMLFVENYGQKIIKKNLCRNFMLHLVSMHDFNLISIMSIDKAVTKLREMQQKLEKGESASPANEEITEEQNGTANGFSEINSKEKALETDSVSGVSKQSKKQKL
Sequence of EZH2 (Q09028 whole entry partner): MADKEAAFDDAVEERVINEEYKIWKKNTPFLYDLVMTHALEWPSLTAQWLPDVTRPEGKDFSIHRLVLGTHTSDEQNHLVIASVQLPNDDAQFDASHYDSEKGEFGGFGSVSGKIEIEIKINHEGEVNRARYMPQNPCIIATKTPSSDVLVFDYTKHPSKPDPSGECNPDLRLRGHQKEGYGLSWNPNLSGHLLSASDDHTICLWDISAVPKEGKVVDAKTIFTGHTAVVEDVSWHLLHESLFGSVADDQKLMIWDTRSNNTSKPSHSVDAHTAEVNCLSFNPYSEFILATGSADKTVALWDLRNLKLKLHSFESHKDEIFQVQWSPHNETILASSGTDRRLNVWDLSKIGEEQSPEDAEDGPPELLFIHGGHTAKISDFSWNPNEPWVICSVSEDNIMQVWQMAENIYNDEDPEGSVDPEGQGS

For the test, the target named is EZH2 (Homo sapiens (Human), UniProt Q15910). The test can be described thus: PRC2 enzyme assay on peptide substrates. The test is classed as biochemical. As to conditions: PRC2 enzyme assays on peptide substrates; 4 nM enzyme, 30 min preincubation at 25° C.; read-out: EZH2 IC50. From the text:
General Materials. S-adenosylmethionine (SAM), S-adenosylhomocyteine (SAH), bicine, KCl, Tween20, dimethylsulfoxide (DMSO) and bovine skin gelatin (BSG) were purchased from Sigma-Aldrich at the highest level of purity possible. Dithiothreitol (DTT) was purchased from EMD. ^3H-SAM was purchased from American Radiolabeled Chemicals with a specific activity of 80 Ci/mmol. 384-well streptavidin Flashplates were purchased from PerkinElmer.
Substrates. […] The sequences are listed below.
Recombinant PRC2 Enzymes. Human PRC2 enzymes were purified as 4-component enzyme complexes co-expressed in Spodoptera frugiperda (sf9) cells using a baculovirus expression system. The subunits expressed were wild-type EZH2 (NM_004456) or EZH2 Y641F, N, H, S or C mutants generated from the wild-type EZH2 construct, EED (NM_003797), Suz12 (NM_015355) and RbAp48 (NM_005610). The EED subunit contained an N-terminal FLAG tag that was used to purify the entire 4-component complex from sf9 cell lysates.
General Procedure for PRC2 Enzyme Assays on Peptide Substrates. The assays were all performed in a buffer consisting of 20 mM bicine (pH=7.6), 0.5 mM DTT, 0.005% BSG and 0.002% Tween20, prepared on the day of use. […] DMSO (1 μL) was added to columns 11, 12, 23, 24, rows A-H for the maximum signal control, and SAH, a known product and inhibitor of PRC2 (1 μL) was added to columns 11, 12, 23, 24, rows I-P for the minimum signal control. A cocktail (40 μL) containing the wild-type PRC2 enzyme and H3K27me0 peptide or any of the Y641 mutant enzymes and H3K27me2 peptide was added by Multidrop Combi (Thermo). The compounds were allowed to incubate with PRC2 for 30 min at 25° C., then a cocktail (10 μL) containing a mixture of non-radioactive and ^3H-SAM was added to initiate the reaction (final volume=51 μL). […] The assays were stopped by the addition of non-radioactive SAM (10 μL) to a final concentration of 600 μM, which dilutes the ^3H-SAM to a level where its incorporation into the peptide substrate is no longer detectable. 50 μL of the reaction in the 384-well polypropylene plate was then transferred to a 384-well Flashplate and the biotinylated peptides were allowed to bind to the streptavidin surface for at least 1 h before being washed three times with 0.1% Tween20 in a Biotek ELx405 plate washer. The plates were then read in a PerkinElmer TopCount platereader to measure the quantity of ^3H-labeled peptide bound to the Flashplate surface, measured as disintegrations per minute (dpm) or alternatively, referred to as counts per minute (cpm).
Where dpm=disintegrations per minute, cmpd=signal in assay well, and min and max are the respective minimum and maximum signal controls.
Where top and bottom are the normally allowed to float, but may be fixed at 100 or 0 respectively in a 3-parameter fit. The Hill Coefficient normally allowed to float but may also be fixed at 1 in a 3-parameter fit. Y is the % inhibition and X is the compound concentration.
What is called IC50 is the concentration at which inhibition is half-maximal. For `Cc1cc(C)c(CNC(=O)c2cc(C3=CC(C)(C)NC(C)(C)C3)nc3c2cnn3C2COC2)c(=O)[nH]1` [Compound B-15, N-((4,6-dimethyl-2-oxo-1,2-dihydropyridin-3-yl)methyl)-1-(oxetan-3-yl)-6-(2,2,6,6-tetramethyl-1,2,3,6-tetrahydropyridin-4-yl)-1H-pyrazolo[3,4-b]pyridine-4-carboxamide], the IC50 was in the range of 300 to 1000 nM.
For `Cc1cc(C)c(CNC(=O)c2cc(C3=CC(C)(C)NC(C)(C)C3)nc3c2cnn3C2CCCCC2)c(=O)[nH]1` [Compound B-16, 1-cyclohexyl-N-((4,6-dimethyl-2-oxo-1,2-dihydropyridin-3-yl)methyl)-6-(2,2,6,6-tetramethyl-1,2,3,6-tetrahydropyridin-4-yl)-1H-pyrazolo[3,4-b]pyridine-4-carboxamide], the concentration for half-maximal inhibition (IC50) was under 300 nM.
The result for `CC(=O)c1cc(C(=O)NCc2c(C)cc(C)[nH]c2=O)c2cnn(C(C)C)c2n1` [Compound B-17, 6-acetyl-N-((4,6-dimethyl-2-oxo-1,2-dihydropyridin-3-yl)methyl)-1-isopropyl-1H-pyrazolo[3,4-b]pyridine-4-carboxamide] reads 1000 to 3000 nM; that for `CNC(=O)c1cc(C(=O)NCc2c(C)cc(C)[nH]c2=O)c2cnn(C(C)C)c2n1` [Compound B-18, N4-((4,6-dimethyl-2-oxo-1,2-dihydropyridin-3-yl)methyl)-1-isopropyl-N6-methyl-1H-pyrazolo[3,4-b]pyridine-4,6-dicarboxamide], 1000 to 3000 nM; that for `Cc1cc(C)c(CNC(=O)c2cc(C3=CCN(C(=O)C4CCNCC4)CC3)nc3c2cnn3C(C)C)c(=O)[nH]1` [Compound B-20, N-((4,6-dimethyl-2-oxo-1,2-dihydropyridin-3-yl)methyl)-1-isopropyl-6-(1-(piperidine-4-carbonyl)-1,2,3,6-tetrahydropyridin-4-yl)-1H-pyrazolo[3,4-b]pyridine-4-carboxamide], under 300 nM.
For the molecule `COCc1cc(C)[nH]c(=O)c1CNC(=O)c1cc(C2=CC(C)(C)NC(C)(C)C2)nc2c1cnn2C(C)C` [Compound B-21, 1-isopropyl-N-((4-(methoxymethyl)-6-methyl-2-oxo-1,2-dihydropyridin-3-yl)methyl)-6-(2,2,6,6-tetramethyl-1,2,3,6-tetrahydropyridin-4-yl)-1H-pyrazolo[3,4-b]pyridine-4-carboxamide], the IC50 was 300 to 1000 nM.
Under `Cc1cc(C)c(CNC(=O)c2cc(C=O)nc3c2cnn3C(C)C)c(=O)[nH]1` [Compound B-22, N-((4,6-dimethyl-2-oxo-1,2-dihydropyridin-3-yl)methyl)-6-formyl-1-isopropyl-1H-pyrazolo[3,4-b]pyridine-4-carboxamide] stands under 300 nM; under `Cc1cc(C)c(CNC(=O)c2cc(C3CCNCC3)nc3c2cnn3C(C)C)c(=O)[nH]1` [Compound B-24, N-((4,6-dimethyl-2-oxo-1,2-dihydropyridin-3-yl)methyl)-1-isopropyl-6-(piperidin-4-yl)-1H-pyrazolo[3,4-b]pyridine-4-carboxamide], 300 to 1000 nM; under `CCc1cc(C)[nH]c(=O)c1CNC(=O)c1cc(C2=CC(C)(C)NC(C)(C)C2)nc2c1cnn2C(C)C` [Compound B-25, N-((4-ethyl-6-methyl-2-oxo-1,2-dihydropyridin-3-yl)methyl)-1-isopropyl-6-(2,2,6,6-tetramethyl-1,2,3,6-tetrahydropyridin-4-yl)-1H-pyrazolo[3,4-b]pyridine-4-carboxamide], under 300 nM.
The result for `CCc1nn(C(C)C)c2nc(C3=CC(C)(C)NC(C)(C)C3)cc(C(=O)NCc3c(C)cc(C)[nH]c3=O)c12` [Compound B-26, N-((4,6-dimethyl-2-oxo-1,2-dihydropyridin-3-yl)methyl)-3-ethyl-1-isopropyl-6-(2,2,6,6-tetramethyl-1,2,3,6-tetrahydropyridin-4-yl)-1H-pyrazolo[3,4-b]pyridine-4-carboxamide] reads 300 to 1000 nM; that for `Cc1cc(C)c(CNC(=O)c2cc(C3CCN(S(C)(=O)=O)CC3)nc3c2cnn3C(C)C)c(=O)[nH]1` [Compound B-27, N-((4,6-dimethyl-2-oxo-1,2-dihydropyridin-3-yl)methyl)-1-isopropyl-6-(1-(methylsulfonyl)piperidin-4-yl)-1H-pyrazolo[3,4-b]pyridine-4-carboxamide], 300 to 1000 nM; that for `Cc1cc(C)c(CNC(=O)c2cc(C3=CCN(C(=O)C4CCCNC4)CC3)nc3c2cnn3C(C)C)c(=O)[nH]1` (stereo not shown) [Compound B-28, N-((4,6-dimethyl-2-oxo-1,2-dihydropyridin-3-yl)methyl)-1-isopropyl-6-(1-(piperidine-3-carbonyl)-1,2,3,6-tetrahydropyridin-4-yl)-1H-pyrazolo[3,4-b]pyridine-4-carboxamide], under 300 nM.
Under `Cc1cc(C)c(CNC(=O)c2cc(C3CCN(C4CCNCC4)CC3)nc3c2cnn3C(C)C)c(=O)[nH]1` [Compound B-29, 6-([1,4′-bipiperidin]-4-yl)-N-((4,6-dimethyl-2-oxo-1,2-dihydropyridin-3-yl)methyl)-1-isopropyl-1H-pyrazolo[3,4-b]pyridine-4-carboxamide] stands under 300 nM.
As to `Cc1cc(C)c(CNC(=O)c2cc(C3=CCN(C(=O)C4CNC4)CC3)nc3c2cnn3C(C)C)c(=O)[nH]1` [Compound B-30, 6-(1-(azetidine-3-carbonyl)-1,2,3,6-tetrahydropyridin-4-yl)-N-((4,6-dimethyl-2-oxo-1,2-dihydropyridin-3-yl)methyl)-1-isopropyl-1H-pyrazolo[3,4-b]pyridine-4-carboxamide], the half-maximal inhibitory concentration (IC50) is under 300 nM.
Under `Cc1cc(C)c(CNC(=O)c2cc(C3=CCN(C(=O)C4CCN(C)C4)CC3)nc3c2cnn3C(C)C)c(=O)[nH]1` (stereo not shown) [Compound B-31, N-((4,6-dimethyl-2-oxo-1,2-dihydropyridin-3-yl)methyl)-1-isopropyl-6-(1-(1-methylpyrrolidine-3-carbonyl)-1,2,3,6-tetrahydropyridin-4-yl)-1H-pyrazolo[3,4-b]pyridine-4-carboxamide] stands under 300 nM; under `Cc1cc(C)c(CNC(=O)c2cc(C3=CCN(C(=O)C4CCCN(C)C4)CC3)nc3c2cnn3C(C)C)c(=O)[nH]1` (stereo not shown) [Compound B-32, N-((4,6-dimethyl-2-oxo-1,2-dihydropyridin-3-yl)methyl)-1-isopropyl-6-(1-(1-methylpiperidine-3-carbonyl)-1,2,3,6-tetrahydropyridin-4-yl)-1H-pyrazolo[3,4-b]pyridine-4-carboxamide], under 300 nM; under `Cc1cc(C)c(CNC(=O)c2cc(C3=CCN(C4CCN(CCS(C)(=O)=O)CC4)CC3)nc3c2cnn3C(C)C)c(=O)[nH]1` [Compound B-33, N-((4,6-dimethyl-2-oxo-1,2-dihydropyridin-3-yl)methyl)-1-isopropyl-6-(1-(1-(2-(methylsulfonyl)ethyl)piperidin-4-yl)-1,2,3,6-tetrahydropyridin-4-yl)-1H-pyrazolo[3,4-b]pyridine-4-carboxamide], under 300 nM.
Under `Cc1cc(C)c(CNC(=O)c2cc(C3=CCN(C(=O)C4CCN(C)CC4)CC3)nc3c2cnn3C(C)C)c(=O)[nH]1` [Compound B-34, N-((4,6-dimethyl-2-oxo-1,2-dihydropyridin-3-yl)methyl)-1-isopropyl-6-(1-(1-methylpiperidine-4-carbonyl)-1,2,3,6-tetrahydropyridin-4-yl)-1H-pyrazolo[3,4-b]pyridine-4-carboxamide] stands under 300 nM; under `Cc1cc(C)c(CNC(=O)c2cc(C3CCN(C4CCN(S(C)(=O)=O)CC4)CC3)nc3c2cnn3C(C)C)c(=O)[nH]1` [Compound B-35, N-((4,6-dimethyl-2-oxo-1,2-dihydropyridin-3-yl)methyl)-1-isopropyl-6-(1′-(methylsulfonyl)-[1,4′-bipiperidin]-4-yl)-1H-pyrazolo[3,4-b]pyridine-4-carboxamide], under 300 nM.
In the case of `Cc1cc(C)c(CNC(=O)c2cc(C3=CC(C)(C)NC(C)(C)C3)nc3c2cnn3C(C)C)c(=O)[nH]1` [Compound B-36], the concentration for half-maximal inhibition (IC50) lay in the range of 300 to 1000 nM.
In the case of `Cc1cc(C)c(CNC(=O)c2cc(C3=CCN(C4CCNCC4)CC3)nc3c2cnn3C(C)C)c(=O)[nH]1` [Compound B-38], the half-maximal inhibitory concentration (IC50) was 300 to 1000 nM.
Take `CNCC(=O)N1CC=C(c2cc(C(=O)NCc3c(C)cc(C)[nH]c3=O)c3cnn(C(C)C)c3n2)CC1` [Compound B-39]: the 50% inhibitory concentration (IC50) is 300 to 1000 nM.
